Data: patent publication US20200377459A1, “CHARGED ION CHANNEL BLOCKERS AND METHODS FOR USE” (President and Fellows of Harvard College, priority 2015, published 2020)

Tests used:
[1] = tested on: thermal nociceptive threshold; assay: Thermal nociceptive threshold after acute intraplantar injection in naive animals; type: in vivo, rats; settings: for difference in thermal nociceptive threshold between contralateral and injected paw: rats, acute intraplantar injection 50 μl, 0.5%, no injury
[2] = tested on: paw incision-induced thermal hyperalgesia; assay: Paw incision-induced thermal hyperalgesia; type: in vivo; settings: rats, intradermal injection into the surgical wound, 1 and 3 hour post-treatment
Description: FIGS. 3A-3B are data showing reversal of paw incision-induced thermal hyperalgesia by charged sodium channel blockers. […] The data are means±SEM of 8 rats per group. The statistical comparison with the contralateral paw (*) is indicated by ***P<0.001. All procedures were approved by the Institutional Animal Care and Use Committees. Mice and rats were housed in standard environmental conditions (12-h light/dark cycle; 23° C.; food and water ad libitum) at facilities accredited by the Association for Assessment and Accreditation of Laboratory Animal Care. 8-week old male BALB/c (stock number: 001026) and C57BL/6J (stock number 000664) mice were purchased from Jackson Laboratory and respectively used in allergic airway inflammation (FIG. 5) and pain hypersensitivity model (FIGS. 2A-2D). 6-week old male Sprague-Dawley (stock number: 400) rats, 150±25 grams, were purchased from Charles River laboratory and used to assess pain hypersensitivity (FIG. 3). The compounds were injected in the plantar surface of each animal's right hind paw in 10 μl (mice) or 50 μl (rats) volume of 1:1 emulsion of Complete Freund's Adjuvant (CFA). […] On the 4th day, their thermal nociceptive threshold was evaluated. […] Impact of treatment was analyzed 1 h prior and 1, 3, 6 and 24 h post-treatment. […] With each reading the apparatus was set with a cut-off time of 32 s. […]

[3] = tested on: ATF3 expression in dorsal root ganglion; assay: ATF3 immunofluorescence in dorsal root ganglion (neurotoxicity); type: in vivo; settings: mice, hindpaw injection CFA+NEE 1%, 20 μl, 8 weeks earlier
Description: Representative picture of ATF3 (dark shading, FIGS. 4A-4C) expression in mice dorsal root ganglion slice exposed 8 weeks earlier to an acute hindpaw injection of CFA+N-ethyl-etidocaine (Compound 21) (1%, 20 μl).
Upon harvesting, the dorsal root ganglia were fixed overnight in 4% para-formaldehyde, washed in PBS and cryoprotected by sequential sucrose immersion (PBS 10-30% sucrose, Overnight). Ganglia were mounted in O.C.T. (Tissue-tek), and serially cut in 20 μm coronal sections with a cryostat. The sections were thaw-mounted on Fisherbrand superfrost microscopy slides and kept at −80° C. On the day of the experiment, sections were thawed at room temperature for 10 min. Sections were washed in PBS for 5 min, blocked for 1 h at room temperature (PBS, 0.1% Triton X-100, 5% BSA) and exposed to the primary antibodies (Overnight, 4° C.), namely rabbit anti-mouse ATF3 (Sigma, # HPA001562). Sections were then washed three times in PBS (5 min), exposed to the secondary antibodies and DAPI (1:2000. Sigma, # D9542) (2 h, dark), washed, coverslipped with Vectashield (Vector Labs) and observed under confocal microscope ([…], LSM-710).
To evaluate if such toxicity occurred with NEE (Compound 21), mice were injected with a combination of CFA+NEE (1%) 8 weeks prior to DRG extraction.

human Nav1.7 channels = target: T1, human Nav1.7 channels (Homo sapiens, UniProt Q15858); assay: Whole-cell patch clamp, use-dependent block of sodium current, drug applied intracellularly or externally; type: cell-based
T1 construct: expressed in transfected cells
T1 sequence (Q15858 whole entry): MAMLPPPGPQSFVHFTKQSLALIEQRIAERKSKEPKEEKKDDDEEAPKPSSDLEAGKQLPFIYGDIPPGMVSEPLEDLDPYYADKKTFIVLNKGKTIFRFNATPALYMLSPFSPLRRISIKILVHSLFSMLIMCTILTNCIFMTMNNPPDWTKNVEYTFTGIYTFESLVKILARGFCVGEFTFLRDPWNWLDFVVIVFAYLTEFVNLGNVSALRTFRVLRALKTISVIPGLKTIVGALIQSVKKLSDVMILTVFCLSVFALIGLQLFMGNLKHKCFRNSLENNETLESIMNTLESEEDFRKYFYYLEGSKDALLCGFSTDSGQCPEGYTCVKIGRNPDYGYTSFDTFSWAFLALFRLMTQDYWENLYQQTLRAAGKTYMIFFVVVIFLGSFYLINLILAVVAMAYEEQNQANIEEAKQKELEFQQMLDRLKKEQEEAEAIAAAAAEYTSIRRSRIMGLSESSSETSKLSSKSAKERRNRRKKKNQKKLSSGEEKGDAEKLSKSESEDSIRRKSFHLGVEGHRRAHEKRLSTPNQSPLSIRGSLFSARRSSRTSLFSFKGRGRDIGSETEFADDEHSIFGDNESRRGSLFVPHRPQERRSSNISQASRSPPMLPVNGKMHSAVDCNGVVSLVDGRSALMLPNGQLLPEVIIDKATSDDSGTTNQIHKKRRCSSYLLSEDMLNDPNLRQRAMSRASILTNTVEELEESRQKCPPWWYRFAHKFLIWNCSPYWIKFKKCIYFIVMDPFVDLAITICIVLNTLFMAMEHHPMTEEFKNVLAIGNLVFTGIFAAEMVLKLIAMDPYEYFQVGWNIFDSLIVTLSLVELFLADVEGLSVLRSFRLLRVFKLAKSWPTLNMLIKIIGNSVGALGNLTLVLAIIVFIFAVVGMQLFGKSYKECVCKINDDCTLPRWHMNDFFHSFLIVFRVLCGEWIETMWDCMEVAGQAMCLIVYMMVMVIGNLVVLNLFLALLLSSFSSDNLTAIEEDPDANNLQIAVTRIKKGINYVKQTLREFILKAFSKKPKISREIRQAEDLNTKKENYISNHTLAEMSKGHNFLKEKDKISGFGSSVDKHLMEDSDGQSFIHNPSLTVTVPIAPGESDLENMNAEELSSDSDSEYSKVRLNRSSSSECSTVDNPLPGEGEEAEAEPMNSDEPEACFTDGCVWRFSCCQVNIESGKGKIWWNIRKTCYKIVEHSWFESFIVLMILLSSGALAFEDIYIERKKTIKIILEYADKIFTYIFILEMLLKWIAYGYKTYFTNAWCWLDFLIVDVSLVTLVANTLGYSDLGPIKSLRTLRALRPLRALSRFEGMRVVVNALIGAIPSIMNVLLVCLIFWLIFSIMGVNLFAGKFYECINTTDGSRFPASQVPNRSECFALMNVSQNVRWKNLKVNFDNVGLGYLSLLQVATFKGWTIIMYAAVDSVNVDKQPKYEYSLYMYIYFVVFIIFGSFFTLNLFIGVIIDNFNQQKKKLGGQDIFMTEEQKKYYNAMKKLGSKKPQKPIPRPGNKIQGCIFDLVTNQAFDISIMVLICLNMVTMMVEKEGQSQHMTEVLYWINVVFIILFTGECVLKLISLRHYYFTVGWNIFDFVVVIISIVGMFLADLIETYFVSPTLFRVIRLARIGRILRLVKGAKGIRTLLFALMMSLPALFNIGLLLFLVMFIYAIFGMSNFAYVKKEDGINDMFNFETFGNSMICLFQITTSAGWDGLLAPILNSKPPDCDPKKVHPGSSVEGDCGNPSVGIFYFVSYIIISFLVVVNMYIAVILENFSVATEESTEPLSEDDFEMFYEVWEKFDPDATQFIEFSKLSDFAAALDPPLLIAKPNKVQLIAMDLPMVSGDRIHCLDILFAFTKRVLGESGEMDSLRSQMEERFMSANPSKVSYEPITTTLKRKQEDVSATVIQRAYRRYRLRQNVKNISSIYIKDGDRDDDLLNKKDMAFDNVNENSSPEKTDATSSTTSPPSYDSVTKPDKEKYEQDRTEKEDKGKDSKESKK
Description: Whole-cell recordings were made of currents carried by voltage-activated channels in HEK293 cells stably expressing human Nav1.7 channels. Recordings were made using patch pipettes with resistances of 2-3.5 MQ when filled with internal solution, consisting of 61 mM CsF, 61 mM CsCl, 9 mM NaCl, 1.8 mM MgCl2, 9 mM EGTA, 14 mM creatine phosphate (tris salt), 4 mM MgATP, and 0.3 mM GTP (tris salt), 9 mM HEPES, pH adjusted to 7.2 with CsOH. The shank of the electrode was wrapped with Parafilm in order to reduce capacitance and allow optimal series resistance compensation without oscillation. Seals were obtained and the whole-cell configuration established with cells in Tyrode's solution (155 mM NaCl, 3.5 mM KCl, 1.5 mM CaCl2), 1 mM MgCl2, 10 mM HEPES, 10 mM glucose, pH adjusted to 7.4 with NaOH) with 10 mM TEACl. To ensure complete dialysis with pipette solution, recordings began after 5 to 10 min after establishment of the whole-cell configuration.
Currents were recorded at room temperature (21-23° C.) with an Axopatch 200 amplifier and filtered at 5 kHz with a low-pass Bessel filter. The amplifier was tuned for partial compensation of series resistance (typically 70-80% of a total series resistance of 4-10 MO). Currents were digitized using a Digidata 1322A data acquisition interface controlled by pClamp9.2 software (Axon Instruments) and analyzed using programs written in Igor Pro 4.0 (Wavemetrics, Lake Oswego, Oreg.). Currents were corrected for linear capacitative and leak currents determined using 5 mV hyperpolarizations delivered from the resting potential (usually −80 or −100 mV) and then appropriately scaled and subtracted.
Sodium currents were evoked by 30-msec depolarizations from −100 mV to −20 mV. To assay use-dependent block, pulses were delivered at series of increasing rates: 0.05 Hz for 1-min, 0.33 Hz for 1-min, 1 Hz for 1-min, 3 Hz for 1-min, 5 Hz for 30 seconds, 10 Hz for 30 seconds, with 1 minute rest between each series of pulses. After the series of pulses to induce use-dependent block, the time course of recovery was followed using pulses delivered at 01. Hz (2-min) and 0.05 Hz (1-min).
To induce use-dependent block, the depolarizations were delivered by series of increasing rates: 0.05 Hz for 1-min, 0.33 Hz for 1-min, 1 Hz for 1-min, 3 Hz for 1-min, 5 Hz for 30 seconds, 10 Hz for 30 seconds, with 1 minute rest between each series of pulses. After the series of pulses to induce use-dependent block, the time course of recovery was followed using pulses delivered at 01. Hz (2-min) and 0.05 Hz (1-min). Peak sodium current was plotted as a function of experimental time (1-min per division on the time axis).

Compound | long lasting analgesia in naïve animals ([1]; naïve animals) | difference in thermal nociceptive threshold between contralateral and injected paw [1] | thermal hyperalgesia after surgical incision versus contralateral paw [2] | neurotoxicity: ATF3 expression in DRG [3] | neurotoxicity: ATF3 expression in DRG ([3]; listed as NEE) | inhibition at 100 µM (human Nav1.7 channels) [%] | use dependent accumulation of block (human Nav1.7 channels; 100 micromolar inside cell, stimulation frequencies from 1 to 10 Hz)
CCC[N+](CC)(CC)C(CC)C(=O)Nc1c(C)cccc1C (stereo not drawn) [Compound 21, N-ethyl etidocaine] | without long lasting analgesia | no differences | absent | does not induce neurotoxicity | No ATF3 expression was observed | 97 | 
CC[N+](CC)(CC)CC(=O)Nc1c(C)cccc1C [QX-314, reference compound] |  | no differences | absent |  |  |  | strong use dependent accumulation of block
